Entries after “also recorded” stand apart in the source; their conditions may differ. Like-named read-outs stand apart in the source and are kept apart here.
Columns and labels:
[1] = test system: WSU-DLCL2 human lymphoma cells; assay: Cell viability of WSU-DLCL2 cells, Guava ViaCount and flow cytometry; type: cell-based; conditions: for cell viability, combination with Compound 44: WSU-DLCL2
Method: The dosage schedule is depicted in FIG. 1A. […] After 4 days, cell viability was determined using Millipore Guava ViaCount Reagent and flow cytometry analysis.
Cell viability was determined by staining with Millipore Guava ViaCount Reagent and then analyzed by flow cytometry.
(§1) Cell viability was determined 4 days later using Millipore Guava ViaCount reagent and flow cytometry analysis. Percentage of cell viability was normalized to percentage of the DMSO-treated sample.

RL cells = assay: Cell viability of RL cells, Guava ViaCount and flow cytometry; type: cell-based, human; conditions: RL cells (EZH2 Y641N); for cell viability: single agent
Method: as §1

OCI-LY19 cell line = assay: Cell viability of OCI-LY19 cells, Guava ViaCount and flow cytometry; type: cell-based, human; conditions: OCI-LY19 (wild-type EZH2); for cell viability: single agent
Method: as §1

[2] = test system: SUDHL6 human lymphoma cells; assay: Efficacy study in SUDHL6 xenograft model; type: in vivo, athymic nude mice; conditions: Compound 44 alone over the 28 day treatment
Method: (§2) The animals were fed ad libitum water (reverse osmosis 1 ppm Cl) and NIH 31 Modified and Irradiated Lab Diet® consisting of 18.0% crude protein, 5.0% crude fat, and 5.0% crude fiber. The mice were housed on irradiated Enrich-o'cobs™ bedding in static microisolators on a 12-hour light cycle at 20-22° C. (68-72° F.) and 40-60% humidity. All procedures comply with the recommendations of the Guide for Care and Use of Laboratory Animals with respect to restraint, husbandry, surgical procedures, feed and fluid regulation, and veterinary care.
(§3) Human lymphoma cell lines were harvested during mid-log phase growth, and resuspended in PBS with 50% Matrigel™ (BD Biosciences). Each mouse received 1×10^7 cells (0.2 mL cell suspension) subcutaneously in the right flank. Tumors were calipered in two dimensions to monitor growth as the mean volume approached the desired 80-120 mm^3 range. Tumor size, in mm^3, was calculated from: […]
(§4) Mice were treated at compound doses ranging from 75-600 mg/kg and at TID (3 times a day every 8 h), BID (twice a day every 12 h) or QD (once a day) schedules for various amount of days by oral gavage or injections via the intravenous, intraperitoneal or subcutaneous routes. Each dose was delivered in a volume of 0.2 mL/20 g mouse (10 mL/kg), and adjusted for the last recorded weight of individual animals. […]

[3] = test system: WSU-DLCL2 human lymphoma cells; assay: Efficacy study in WSU-DLCL2 xenograft model; type: in vivo; conditions: 28 days
Method: as §2, §3
(§5) Compounds of Formula (IIa) were stored at room temperature and protected from light. On each treatment day, a fresh compound formulations were prepared by suspending the powders in 0.5% sodium carboxymethylcellulose (NaCMC) and 0.1% Tween® 80 in deionized water. […] Formulations were stored away from light at 4° C. prior to administration.
Several chemotherapeutica were used in parallel to Epizyme compounds. Cyclophosphamide (Baxter, Lot #016591), was reconstituted to 20 mg/mL with sterile saline and stored at 4° C. A fresh dosing solution was prepared for each dose by dilution with saline. Doxorubicin (Doxorubicin Meiji®, Meiji Pharmaceutical Co. Ltd., 1 mg/mL) was stored at 4° C. and diluted with saline on each treatment day. Vincristine (Hospira, Inc., 1 mg/mL) was diluted with saline on each treatment day. Prednisone (Boehringer Ingelheim GmbH, 1 mg/mL) was diluted with PBS at the beginning of each 5-day dosing cycle.
Mice were treated at compound doses ranging from 75-600 mg/kg and at TID (3 times a day every 8 h), BID (twice a day every 12 h) or QD (once a day) schedules for various amount of days by oral gavage or injections via the intravenous, intraperitoneal or subcutaneous routes. Each dose was delivered in a volume of 0.2 mL/20 g mouse (10 mL/kg), and adjusted for the last recorded weight of individual animals. The maximal treatment length was 28 days.
(§6) Treatment efficacy was determined on the last treatment day. MTV(n), the median tumor volume for the number of animals, n, evaluable on the last day, was determined for each group. Percent tumor growth inhibition (% TGI) can be defined several ways. First, the difference between the MTV(n) of the designated control group and the MTV(n) of the drug-treated group is expressed as a percentage of the MTV(n) of the control group: […]
Another way of calculating % TGI is taking the change of the tumor size from day 1 to day n into account with n being the last treatment day.
SCID mice were subcutaneously injected with 1×10^7 WSU-DLCL2 human lymphoma cells. […] Tumor volume was measured twice a week until the endpoint of 28 days.

H3K27me3 = assay: Histone methylation status in WSU-DLCL2 xenograft tumors, Western blot and ELISA; type: in vivo, SCID mice; conditions: after 28 days of treatment
Method: Histones were extracted from tumor samples as described above. […] The plates were sealed and incubated overnight at 4° C. The following day, plates were washed 3× with 300 ul/well PBST (PBS+0.05% Tween 20; 10×PBST, KPL #51-14-02) on a Bio Tek plate washer. Plates were blocked with 300 ul/well of diluent (PBS+2% BSA+0.05% Tween 20), incubated at RT for 2 hours, and washed 3× with PBST. All antibodies were diluted in diluent. […] Plates were washed 4× with PBST. For detection, 100 ul/well of TMB substrate (BioFx Laboratories, #TMBS) was added and plates incubated in the dark at RT for 5 min. […] Absorbance at 450 nm was read on SpectaMax M5 Microplate reader.

[4] = test system: SUDHL10 human lymphoma cells; type: in vivo; conditions: 28 days
Method: as §2, §3, §5
Several chemotherapeutica were used in parallel to Epizyme compounds. […]
as §4
as §6, with “Percent tumor growth inhibition (% TGI) can be defined several ways.” left out

Toledo cells = assay: Anti-proliferative combination matrix, Cell Titer-Glo, Toledo; conditions: Toledo (WT EZH2); for combination benefit: drug combined with Compound 44, 6 days Compound 44 then 5 days combination
Method: (§7) The WSU-DLCL2 and SU-DHL-10 contain the Y641 EZH2 mutation, and the Toledo cell line contains WT EZH2.
(§8) Increasing doses of drugs were then added to the plates. […] After incubation for an additional 3 days cell viability of WSU-DLCL2 or SU-DHL-10 was measured using Promega Cell Titer-Glo reagent followed by luminescence detection. After 5 days viability of Toledo cells was measured using Promega Cell Titer-Glo reagent followed by luminescence detection.
(§9) First, raw luminescence values were converted to percent inhibition or fraction affected (Fa) calculated using controls for maximum inhibition and DMSO treated cells for minimum inhibition control located on each plate. Percent inhibition values for each constant ratio of compound combinations were entered into Calcusyn to determine the combination index values.

[5] = Compound 44 plasma concentration in WSU-DLCL2 tumor-bearing mice, LC-MS/MS; conditions: 225 mg/kg BID
Method: On several days during the study mice were sampled in a pre-specified fashion. Sampling included non-terminal bleeds (0.25 mL) from the mandibular vein without anesthesia and full volume blood collection via terminal cardiac puncture under CO2 anesthesia. Blood samples were processed for plasma, with K2-EDTA as anti-coagulant. The plasma samples were frozen at −80° C. and stored prior to bioanalysis of compound levels.
Plasma samples were obtained on day 28 at 5 minutes prior to the last dose (“trough”) and 3 hours after the last dose (“post”).

WSU-DLCL2 cells = assay: Anti-proliferative combination matrix, Cell Titer-Glo, WSU-DLCL2; conditions: for synergy characterization (Chou-Talalay): drug combined with Compound 44; for enhancement of Compound 44 potency (fold IC50 shift): drug combined with Compound 44, top dose of drug, 4 days Compound 44 then 3 days combination
Method: as §7, §8, §9

SU-DHL-10 cells = assay: Anti-proliferative combination matrix, Cell Titer-Glo, SU-DHL-10; conditions: for synergy characterization (Chou-Talalay): drug combined with Compound 44; for enhancement of Compound 44 potency (fold IC50 shift): drug combined with Compound 44, top dose of drug, 4 days Compound 44 then 3 days combination
Method: as §7, §8, §9

[6] = Compound 44 for 4 days, then Compound 44 plus agent for 4 days (FIG. 1A schedule)

For `CCN(c1cc(-c2ccc(CN3CCOCC3)cc2)cc(C(=O)NCc2c(C)cc(C)[nH]c2=O)c1C)C1CCOCC1` [Compound 44, N-((4,6-dimethyl-2-oxo-1,2-dihydropyridin-3-yl)methyl)-5-(ethyl (tetrahydro-2H-pyran-4-yl)amino)-4-methyl-4′-(morpholinomethyl)-[1,1′-biphenyl]-3-carboxamide], the cell viability ([1]; single agent, increasing concentrations, WSU-DLCL2 (EZH2 Y641F)) was “decrease in cell viability; also recorded: reduction of cell growth”, the cell viability (RL cells) was “does not result in a reduction in cell viability” and the cell viability (OCI-LY19 cell line) was “does not affect cell viability; also recorded: do not show sensitivity”. For the same molecule, the single agent efficacy [2] was “not observed”, the “% TGI from day 1” value ([3]; Compound 44 150 mg/kg TID) was 73% and the “% TGI from day 7” value ([3]; Compound 44 150 mg/kg TID) was 86%. The “% TGI from day 1” value ([3]; Compound 44 225 mg/kg BID) was 71%, the “% TGI from day 7” value ([3]; Compound 44 225 mg/kg BID) was 80% and the “% TGI from day 1” value ([3]; Compound 44 300 mg/kg BID) was 57%. The “% TGI from day 7” value ([3]; Compound 44 300 mg/kg BID) was 67%, the “% TGI from day 1” value ([3]; Compound 44 600 mg/kg QD) was 58% and the “% TGI from day 7” value ([3]; Compound 44 600 mg/kg QD) was 70%. The “methylation of H3K27 in tumors, ELISA” value (H3K27me3; H3K27me3 normalized to total H3) was “inhibited”, the “methylation of H3K27 in tumors, Western blot” value (H3K27me3; all dosages and dosing schedules) was “inhibited” and the “% TGI from day 7” value ([4]; Compound 44 125 mg/kg BID) was 57%. For the same molecule, the “% TGI from day 7” value ([4]; Compound 44 250 mg/kg BID) was 113%, the “% TGI from day 7” value ([4]; Compound 44 500 mg/kg BID) was 115% and the “sensitivity of cell viability” value (Toledo cells; Compound 44 alone) was “no sensitivity”. For the same molecule, the “Compound 44 plasma level, with CHOP vs single agent” value ([5]; day 28, 3 hours after the last dose) was “significantly increased” and the “Compound 44 plasma level, with CHOP vs single agent” value ([5]; day 28, trough (5 minutes prior to the last dose)) was “not significantly different”.
With `N.N.[Cl][Pt][Cl]` [Cisplatin] the combination benefit (Toledo cells) was “no combination benefit; also recorded: No enhancement”, the “synergy characterization (Chou-Talalay)” value (WSU-DLCL2 cells) was “Synergism” and the “synergy characterization (Chou-Talalay)” value (SU-DHL-10 cells) was “synergism”.
For `CO[C@H]1C[C@@H]2CC[C@@H](C)[C@@](O)(O2)C(=O)C(=O)N2CCCC[C@H]2C(=O)O[C@H]([C@H](C)C[C@@H]2CC[C@@H](OCCO)[C@H](OC)C2)CC(=O)[C@H](C)/C=C(\C)[C@@H](O)[C@@H](OC)C(=O)[C@H](C)C[C@H](C)/C=C/C=C/C=C/1C` [Everolimus], the combination benefit (Toledo cells) was “no combination benefit; also recorded: No enhancement”, the “synergy characterization (Chou-Talalay)” value (WSU-DLCL2 cells) was “very strong synergism” and the “synergy characterization (Chou-Talalay)” value (SU-DHL-10 cells) was “Strong synergism”.
In the case of `C[C@]12C=CC(=O)C=C1CC[C@@H]1[C@@H]2[C@@H](O)C[C@@]2(C)[C@H]1CC[C@]2(O)C(=O)CO` [Prednisolone], the “cell viability, combination with Compound 44” value (“cell viability, combination” for short) ([1]; Compound 44 first, then agent alone (FIG. 1B schedule)) was “additional reduction of cell viability”, the “cell viability, combination” value [1, 6] was “synergistic reduction in cell viability; also recorded: additional reduction of cell growth; also recorded: reduced cell viability” and the “cell viability, combination” value ([1]; agent first, then Compound 44 plus agent (FIG. 1C schedule)) was “did not cause a synergistic effect on cell viability”. The “cell viability, combination” value (RL cells; FIG. 1A schedule) was “synergistic effect”, the cell viability (RL cells) was “resistant” and the “cell viability, combination” value (OCI-LY19 cell line; FIG. 1A schedule) was “does not have an additional or synergistic effect on cell viability”. The cell viability (OCI-LY19 cell line) was “show sensitivity”, the combination benefit (Toledo cells) was “no combination benefit; also recorded: No enhancement” and the “enhancement of Compound 44 potency (fold IC50 shift)” value (from here on “enhancement … (fold IC50 shift)”) (WSU-DLCL2 cells) was 7 fold. For the same molecule, the “enhancement … (fold IC50 shift)” value (SU-DHL-10 cells) was 3 fold.
For `C[C@@H]1C[C@H]2[C@@H]3CCC4=CC(=O)C=C[C@]4(C)[C@@]3(F)[C@@H](O)C[C@]2(C)[C@@]1(O)C(=O)CO` [Dexamethasone], the “enhancement … (fold IC50 shift)” value (WSU-DLCL2 cells) was 17 fold and the “enhancement … (fold IC50 shift)” value (SU-DHL-10 cells) was 3 fold.
For `COc1cccc2c1C(=O)c1c(O)c3c(c(O)c1C2=O)C[C@@](O)(C(=O)CO)C[C@@H]3O[C@H]1C[C@H](N)[C@H](O)[C@H](C)O1` [Doxorubicin], the “cell viability, combination” value [1, 6] was “did not exhibit reduced cell viability”, the combination benefit (Toledo cells) was “no combination benefit; also recorded: No enhancement” and the “synergy characterization (Chou-Talalay)” value (WSU-DLCL2 cells) was “Synergism”. For the same molecule, the “synergy characterization (Chou-Talalay)” value (SU-DHL-10 cells) was “Synergism”.
In the case of `Nc1ccn([C@@H]2O[C@H](CO)[C@@H](O)[C@@H]2O)c(=O)n1` [AraC], the combination benefit (Toledo cells) was “no combination benefit; also recorded: No enhancement”, the “synergy characterization (Chou-Talalay)” value (WSU-DLCL2 cells) was “Synergism” and the “synergy characterization (Chou-Talalay)” value (SU-DHL-10 cells) was “Synergism”.
For `CC[C@]1(O)C[C@H]2CN(CCc3c([nH]c4ccccc34)[C@@](C(=O)OC)(c3cc4c(cc3OC)N(C=O)[C@H]3[C@@](O)(C(=O)OC)[C@H](OC(C)=O)[C@]5(CC)C=CCN6CC[C@]43[C@@H]65)C2)C1` [Vincristine], the “cell viability, combination” value [1, 6] was “reduced cell viability at the highest concentration Compound 44”.
